Experiments:
Assay type in all cases: in vivo
Abutilon theophrasti [1] = experiment: Post-emergence herbicidal effect; details: assessed visually after about 3 weeks vs untreated controls
How it was run: (§1)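 Ratings are visual percentages taken around 3 weeks after treatment, compared with untreated plants. Treatment consisted of an aqueous spray of WP or EC formulations, with 0.2% wetting agent, onto one-leaf-stage weeds raised from seed in sandy loam.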

Veronica persica [2] = experiment: Post-emergence herbicidal effect; details: assessed visually after about 3 weeks vs untreated controls
How it was run: as §1

Setaria viridis [3] = experiment: Post-emergence herbicidal effect; details: 320 g/ha, assessed visually after about 3 weeks vs untreated controls
How it was run: as §1

Viola tricolor [4] = experiment: Post-emergence herbicidal effect; details: assessed visually after about 3 weeks vs untreated controls
How it was run: as §1

Amaranthus retroflexus [5] = experiment: Post-emergence herbicidal effect; details: assessed visually after about 3 weeks vs untreated controls
How it was run: as §1

Stellaria media [6] = experiment: Post-emergence herbicidal effect; details: assessed visually after about 3 weeks vs untreated controls
How it was run: as §1

Veronica persica [7] = experiment: Pre-emergence herbicidal effect; details: scored visually after 3 weeks
How it was run: (§2)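 After seeds are covered with sandy loam soil, the formulated compound is sprayed onto the soil surface as an aqueous suspension or emulsion containing 0.2% wetting agent. Three weeks later in the greenhouse, damage is rated by eye from 0% (like controls) to 100% (dead).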

Viola tricolor [8] = experiment: Pre-emergence herbicidal effect; details: scored visually after 3 weeks
How it was run: as §2

Ipomoea purpurea [9] = experiment: Pre-emergence herbicidal effect; details: scored visually after 3 weeks
How it was run: as §2

Cyperus esculentus = experiment: Pre-emergence herbicidal effect; details: scored visually after 3 weeks
How it was run: as §2

Matricaria inodora [10] = experiment: Pre-emergence herbicidal effect; details: scored visually after 3 weeks
How it was run: as §2

Stellaria media [11] = experiment: Pre-emergence herbicidal effect; details: scored visually after 3 weeks
How it was run: as §2

Ipomoea purpurea [12] = experiment: Post-emergence herbicidal effect; details: assessed visually after about 3 weeks vs untreated controls
How it was run: as §1

Matricaria inodora [13] = experiment: Post-emergence herbicidal effect; details: assessed visually after about 3 weeks vs untreated controls
How it was run: as §1

Abutilon theophrasti [14] = experiment: Pre-emergence herbicidal effect; details: scored visually after 3 weeks
How it was run: as §2

Lolium multiflorum = experiment: Pre-emergence herbicidal effect; details: Dosage 320 g/ha, scored visually after 3 weeks
How it was run: as §2

Setaria viridis [15] = experiment: Pre-emergence herbicidal effect; details: scored visually after 3 weeks
How it was run: as §2

Echinochloa crus-galli = experiment: Pre-emergence herbicidal effect; details: scored visually after 3 weeks
How it was run: as §2

Alopecurus myosuroides = experiment: Pre-emergence herbicidal effect; details: Dosage 320 g/ha, scored visually after 3 weeks
How it was run: as §2

Amaranthus retroflexus [16] = experiment: Pre-emergence herbicidal effect; details: Dosage 320 g/ha, scored visually after 3 weeks
How it was run: as §2

Polygonum convolvulus = experiment: Pre-emergence herbicidal effect; details: Dosage 320 g/ha, scored visually after 3 weeks
How it was run: as §2

Row | Structure (SMILES) | post-emergence efficacy ABUTH (Abutilon theophrasti [1]; 80 g/ha) | post-emergence efficacy ABUTH (Abutilon theophrasti [1]; 320 g/ha) | post-emergence efficacy VERPE (Veronica persica [2]; 320 g/ha) | post-emergence efficacy VIOTR (Viola tricolor [4]; 80 g/ha) | post-emergence efficacy VIOTR (Viola tricolor [4]; 320 g/ha) | post-emergence efficacy AMARE (Amaranthus retroflexus [5]; 80 g/ha) | post-emergence efficacy AMARE (Amaranthus retroflexus [5]; 320 g/ha) | post-emergence efficacy STEME (Stellaria media [6]; 80 g/ha) | post-emergence efficacy STEME (Stellaria media [6]; 320 g/ha) | VERPE pre-emergence efficacy (herbicidal activity) (Veronica persica [7]; Dosage 80 g/ha) | VERPE pre-emergence efficacy (herbicidal activity) (Veronica persica [7]; Dosage 320 g/ha) | VIOTR pre-emergence efficacy (herbicidal activity) (Viola tricolor [8]; Dosage 80 g/ha) | VIOTR pre-emergence efficacy (herbicidal activity) (Viola tricolor [8]; Dosage 320 g/ha) | PHBPU pre-emergence efficacy (herbicidal activity) (Ipomoea purpurea [9]; Dosage 80 g/ha) | PHBPU pre-emergence efficacy (herbicidal activity) (Ipomoea purpurea [9]; Dosage 320 g/ha) | CYPES pre-emergence efficacy (herbicidal activity) (Cyperus esculentus; Dosage 320 g/ha) | MATIN pre-emergence efficacy (herbicidal activity) (Matricaria inodora [10]; Dosage 80 g/ha) | MATIN pre-emergence efficacy (herbicidal activity) (Matricaria inodora [10]; Dosage 320 g/ha) | STEME pre-emergence efficacy (herbicidal activity) (Stellaria media [11]; Dosage 80 g/ha) | STEME pre-emergence efficacy (herbicidal activity) (Stellaria media [11]; Dosage 320 g/ha) | also measured
1 | Cc1cc2c(s1)CCCC2Nc1nc(N)c(S(C)(=O)=O)c(C(F)F)n1 (racemic) [compound 287] | 80% | 80% | 100% | 100% | 100% | 90% | 100% | 80% | 100% | 100% | 100% | 90% | 100% | 90% | 100% | 100% | 100% | 100% | 90% | 100% | post-emergence efficacy VERPE (Veronica persica [2]; 80 g/ha): 80%; post-emergence efficacy SETVI (Setaria viridis [3]): 80%; CYPES pre-emergence efficacy (herbicidal activity) (Cyperus esculentus; Dosage 80 g/ha): 80%
2 | CC(=NO)c1cnc(NC2CCCc3sc(C)cc32)nc1N (stereo not drawn) [compound 286] | 90% | 90% | 100% | 90% | 90% | 90% | 90% | 70% | 100% | 100% | 100% | 100% | 100% | 100% | 50% | 70% | 80% | 100% | 60% | 100% | post-emergence efficacy PHBPU (Ipomoea purpurea [12]; 80 g/ha): 70%; post-emergence efficacy PHBPU (Ipomoea purpurea [12]; 320 g/ha): 70%; post-emergence efficacy MATIN (Matricaria inodora [13]; 80 g/ha): 80%; post-emergence efficacy MATIN (Matricaria inodora [13]; 320 g/ha): 90%; ABUTH pre-emergence efficacy (herbicidal activity) (Abutilon theophrasti [14]; Dosage 80 g/ha): 70%; ABUTH pre-emergence efficacy (herbicidal activity) (Abutilon theophrasti [14]; Dosage 320 g/ha): 60%; LOLMU pre-emergence efficacy (herbicidal activity) (Lolium multiflorum): 80%; SETVI pre-emergence efficacy (herbicidal activity) (Setaria viridis [15]; Dosage 320 g/ha): 100%; ECHCG pre-emergence efficacy (herbicidal activity) (Echinochloa crus-galli; Dosage 320 g/ha): 100%; ALOMY pre-emergence efficacy (herbicidal activity) (Alopecurus myosuroides): 60%; AMARE pre-emergence efficacy (herbicidal activity) (Amaranthus retroflexus [16]): 100%; POLCO pre-emergence efficacy (herbicidal activity) (Polygonum convolvulus): 100%
3 | CC(=O)c1cnc(NC2CCCc3sccc32)nc1N (stereo not drawn) [compound 301] |  |  | 100% | 80% | 90% | 80% | 80% | 60% | 60% | 100% | 100% | 100% | 100% | 100% | 100% | 70% | 100% | 100% | 100% | 100% | post-emergence efficacy PHBPU (Ipomoea purpurea [12]; 320 g/ha): 90%; post-emergence efficacy MATIN (Matricaria inodora [13]; 320 g/ha): 60%; LOLMU pre-emergence efficacy (herbicidal activity) (Lolium multiflorum): 100%; SETVI pre-emergence efficacy (herbicidal activity) (Setaria viridis [15]; Dosage 80 g/ha): 100%; SETVI pre-emergence efficacy (herbicidal activity) (Setaria viridis [15]; Dosage 320 g/ha): 100%; ECHCG pre-emergence efficacy (herbicidal activity) (Echinochloa crus-galli; Dosage 80 g/ha): 70%; ECHCG pre-emergence efficacy (herbicidal activity) (Echinochloa crus-galli; Dosage 320 g/ha): 100%; ALOMY pre-emergence efficacy (herbicidal activity) (Alopecurus myosuroides): 80%

From patent publication US10251395B2, “Substituted furano-/thienocycloalkylamino-2-pyrimidine derivatives and use thereof for controlling undesired plant growth” (Bayer CropScience Aktiengesellschaft, priority 2015, dated 2019)
